Assays:
[1] = system: seven avidly binding cell lines (Caco-2, HCT15, HCT116, LoVo, HT29, SEG1, QHTRT); experiment: Binding of 32P-labeled decapeptide to cell lines, two hour incubation, scintillation counting; type: cell-based; conditions: two hour incubation with 32P-labeled peptide, seven of the eighteen cell lines
Description: (§2) Assay of the binding of ^32P-labeled decapeptides to cell lines: Cell lines were grown in complete medium containing 10% bovine fetal serum (heat inactivated). In each well of a 96-well plate, 10,000 cells from various cell lines were grown overnight in complete medium. Ten µl of the labeled-peptide in 1 X PBS and 90 µl of complete medium were added to each well and incubated at 37°C at various times of up to two hours. The peptide-medium was removed and one µl added to 100 ul gel loading buffer and counted by scintillation counting for the probe control or run on a polyacrylamide-SDS gel (Biorad).The adherent cells were briefly and gently washed with complete medium three times and some wells were assayed immediately by adding 100 µl of gel loading buffer to each well and run on a gel or counted in a scintillation counter. Other wells had 100 µl complete medium added and incubated for a further time period. Samples were either counted in a liquid scintillation counter or run on polyacrylamide-SDS gels, exposed to x-ray film, and the film developed.

Caco-2 cells = experiment: Release and retention of 32P counts after washing and further incubation in complete medium; type: cell-based
Description: (§1) The peptide binding, washing and assay experiment described for Figure 2 was then repeated in the seven most avidly binding cell lines using MA5, except that after three washes of medium, 200 ul of complete medium was added to each well and the cells were incubated overnight at 37°C. […] Approximately 88% of MA5 radioactive counts initially retained by the colon cancer cell lines was released into the medium, while approximately 12% of initially retained radioactive counts were retained by cells. The two esophageal cell lines that originally retained large amounts of radioactive counts, QH-TRT and SEG1, retained 39% and 37% of their original counts, respectively, after overnight incubation. Caco-2 cells retained the greatest number of counts, averaging 58,305 cpm in triplicate wells containing 10,000 cells each. This figure represents approximately 5.8 cpm, or 348 counts per hour, per cell (i.e., when extrapolated over a potential 2-week exposure period, equivalent to over 87,000 counts per cell).

[2] = system: Caco-2 colon adenocarcinoma cell line
Description: as §2

[3] = system: eleven nonbinding cell lines (HeLa S3, RKO, 1271, A549, KYSE-70, HT1080, 293H, 1459, HEEpiC, T84, SK-BR-3); experiment: Binding of 32P-labeled decapeptide to cell lines, two hour incubation, scintillation counting; type: cell-based
Description: as §2

[4] = system: SEG1 esophageal adenocarcinoma cell line; experiment: Release and retention of 32P counts after washing and overnight incubation in complete medium; type: cell-based; conditions: two hour incubation, three washes, overnight at 37°C in complete medium
Description: as §1

[5] = system: seven avidly binding cell lines; experiment: as above; type: cell-based; conditions: all seven avidly binding lines
Description: as §1

[6] = system: QH-TRT Barrett's esophagus cell line; experiment: as above; type: cell-based; conditions: two hour incubation, three washes, overnight at 37°C in complete medium
Description: as §1

colon cancer cell lines = experiment: as above; type: cell-based; conditions: two hour incubation, three washes
Description: as §1

[7] = two hours incubation, three wash steps, overnight incubation in medium
[8] = two hour incubation, three washes, 10,000 cells

ratio of cpm retained by Caco-2 to the average of the eleven nonbinding cell lines ([2]; Caco-2): 818
Sequence: GSRRASVASA [MA5]
retention of radioactivity (in words) [1]: very strong retention of radioactivity | time course of release of counts (in words) (Caco-2 cells; 48-hour time period after two hour incubation and washing, triplicate determinations): majority of the total counts released over the 48 hour time period are released by nine hours of incubation | counts retained by cells after overnight incubation (Caco-2 cells; average of triplicate wells containing 10,000 cells each, two hour incubation, washes, overnight in medium): 58,305 cpm | counts per cell extrapolated over a potential 2-week exposure period (Caco-2 cells; extrapolated): over 87,000 counts per cell | counts per cell per day, extrapolated (Caco-2 cells; extrapolated from 5.8 cpm per cell): over 8,300 counts per cell per day | originally retained 32P isotope released (Caco-2 cells; [7]): 88% | originally retained 32P isotope retained by cells (Caco-2 cells; [7]): 12% | share of the total radioactive counts present in the incubation well retained by cells ([2]; after two-hour incubation): approximately 18% | radioactive dose transferred per cell ([2]; two hour incubation, wash, immediate determination of retained radioactivity): over 29 counts per minute per cell | retention difference between variants (MA2 vs MA5) ([2]; two hours' incubation, counts bound as percentage of total counts): 70 fold | binding (in words) ([3]; two hour incubation with 32P-labeled peptide, eleven of eighteen cell lines): did not bind | average 32P counts bound, remaining eleven cell lines along with one blank well [3, 8]: 365 cpm | mean values of 32P counts bound, blank wells and nonbinding cell lines [3, 8]: less than 550 cpm | original counts retained after overnight incubation [4]: 37% | radioactivity released after an overnight incubation [5]: 63% to 88 | original counts retained after overnight incubation [6]: 39% | radioactive counts initially retained that were released into the medium (colon cancer cell lines; 200 ul complete medium, overnight at 37°C): Approximately 88% | initially retained radioactive counts retained by cells (colon cancer cell lines; overnight at 37°C in complete medium): approximately 12%
